Results reported in patent US12116343B2, “Inhibitors of APOL1 and methods of using same” (Vertex Pharmaceuticals Incorporated, priority 2020, dated 2024).

Target: T1, G1 APOL1 (Homo sapiens, UniProt O14791, I384M/S342G)
T1 construct: expressed in transfected cells
T1 sequence (O14791 28-398 S342G/I384M): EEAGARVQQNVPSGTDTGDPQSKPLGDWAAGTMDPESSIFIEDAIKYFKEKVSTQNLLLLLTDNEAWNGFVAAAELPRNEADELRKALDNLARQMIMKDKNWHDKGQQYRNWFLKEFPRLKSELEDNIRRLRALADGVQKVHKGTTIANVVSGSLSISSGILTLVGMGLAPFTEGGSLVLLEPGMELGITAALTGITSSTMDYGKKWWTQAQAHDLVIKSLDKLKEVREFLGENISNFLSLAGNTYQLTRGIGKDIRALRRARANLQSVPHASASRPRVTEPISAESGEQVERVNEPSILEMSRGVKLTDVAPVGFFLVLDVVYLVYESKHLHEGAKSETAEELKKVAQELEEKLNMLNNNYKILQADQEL
Test: Acute APOL1 Thallium Assay with inducible stable clones of HEK 293 cells
Format: cell-based
Settings: HEK 293 T-Rex cells expressing G1 APOL1; read-out: Thallium Assay (IC50)
In short: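 Readout: Tl+-triggered fluorescence, FLIPR, reflecting potassium flux through APOL1 pores after cells take up an AM-ester thallium indicator. Cells: HEK T-Rex stable clone G1 DC3.25, APOL1 G1 induced by tetracycline, seeded 26000 per well.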

| Structure (SMILES) | IC50 [nM] |
| --- | --- |
| CC(C)CC(NC(=O)[C@H]1C[C@H](c2c(-c3ccc(F)cc3)[nH]c3c(F)cc(F)cc32)C1)C(N)=O (stereo partly shown) [Compound 30] | > 1000 |
| N#CC(CO)NC(=O)[C@H]1C[C@H](c2c(-c3ccc(F)cc3)[nH]c3c(F)cc(F)cc32)C1 (stereo partly shown) [Compound 201] | < 250 |
| Cc1cc(NC(=O)[C@H]2C[C@H](c3c(-c4ccc(F)cc4)[nH]c4c(F)cc(F)cc43)C2)no1 [Compound 17] | 250 to 1000 |
| O=C(NC[C@H]1CC[C@@H](CO)O1)[C@H]1C[C@H](c2c(-c3ccc(F)cc3)[nH]c3c(F)cc(F)cc32)C1 [Compound 189] | > 1000 |
| C[C@]1(NC(=O)[C@H]2C[C@H](c3c(-c4ccc(F)cc4)[nH]c4c(F)cc(F)cc43)C2)C[C@@H](O)C1 [Compound 211] | 250 to 1000 |
| O=C(N[C@@H]1CCC[C@H]1O)[C@H]1C[C@H](c2c(-c3ccc(F)cc3)[nH]c3c(F)cc(F)cc32)C1 [Compound 182] | > 1000 |
| O=C(NCCn1cccc1)[C@H]1C[C@H](c2c(-c3ccc(F)cc3)[nH]c3c(F)cc(F)cc32)C1 [Compound 34] | > 1000 |
| CS(=O)(=O)NC(=O)[C@H]1C[C@H](c2c(-c3ccc(F)cc3)[nH]c3c(F)cc(F)cc32)C1 [Compound 213] | > 1000 |
| O=C([C@H]1C[C@H](c2c(-c3ccc(F)cc3)[nH]c3c(F)cc(F)cc32)C1)N1CCOC[C@@H]1CO [Compound 219] | 250 to 1000 |
| C[C@@H](O)CNC(=O)[C@H]1C[C@H](c2c(-c3ccc(F)cc3)[nH]c3c(F)cc(F)cc32)C1 [Compound 175] | 250 to 1000 |
| O=C([C@H]1C[C@H](c2c(-c3ccc(F)cc3)[nH]c3c(F)cc(F)cc32)C1)N1CCOC[C@H]1CO [Compound 217] | > 1000 |
| CS(=O)(=O)CCNC(=O)[C@H]1C[C@H](c2c(-c3ccc(F)cc3)[nH]c3c(F)cc(F)cc32)C1 [Compound 40] | 250 to 1000 |
| O=C(NC1CCOC1)[C@H]1C[C@H](c2c(-c3ccc(F)cc3)[nH]c3c(F)cc(F)cc32)C1 (stereo partly shown) [Compound 15] | > 1000 |
| O=C([C@H]1C[C@H](c2c(-c3ccc(F)cc3)[nH]c3c(F)cc(F)cc32)C1)N1CC[C@H]1CO [Compound 206] | 250 to 1000 |
| O=C(NCCn1cnnc1)[C@H]1C[C@H](c2c(-c3ccc(F)cc3)[nH]c3c(F)cc(F)cc32)C1 [Compound 39] | > 1000 |
| C[C@H](O)[C@@H](CO)NC(=O)[C@H]1C[C@H](c2c(-c3ccc(F)cc3)[nH]c3c(F)cc(F)cc32)C1 [Compound 16] | < 250 |
| O=C(NCC1(O)COC1)[C@H]1C[C@H](c2c(-c3ccc(F)cc3)[nH]c3c(F)cc(F)cc32)C1 [Compound 185] | 250 to 1000 |
| O=C([C@H]1C[C@H](c2c(-c3ccc(F)cc3)[nH]c3c(F)cc(F)cc32)C1)N1CC(CO)C1 [Compound 223] | > 1000 |
| Cc1noc(CNC(=O)[C@H]2C[C@H](c3c(-c4ccc(F)cc4)[nH]c4c(F)cc(F)cc43)C2)n1 [Compound 173] | < 250 |
| NC(=O)C(CO)NC(=O)[C@H]1C[C@H](c2c(-c3ccc(F)cc3)[nH]c3c(F)cc(F)cc32)C1 (stereo partly shown) [Compound 32] | < 250 |
| O=C(N[C@H]1CC[C@@H]1O)[C@H]1C[C@H](c2c(-c3ccc(F)cc3)[nH]c3c(F)cc(F)cc32)C1 [Compound 178] | > 1000 |

| Structure (SMILES) | IC50 [nM] |
| --- | --- |
| Cn1ccc(NC(=O)[C@H]2C[C@H](c3c(-c4ccc(F)cc4)[nH]c4c(F)cc(F)cc43)C2)n1 [Compound 22] | > 1000 |
| O=C1N[C@H](CO)C[C@@H]1NC(=O)[C@H]1C[C@H](c2c(-c3ccc(F)cc3)[nH]c3c(F)cc(F)cc32)C1 [Compound 209] | > 1000 |
| CC(CO)NC(=O)[C@H]1C[C@H](c2c(-c3ccc(F)cc3)[nH]c3c(F)cc(F)cc32)C1 (mixture of isomers) [Compound 13] | < 250 |
| CC1(CO)CCN1C(=O)[C@H]1C[C@H](c2c(-c3ccc(F)cc3)[nH]c3c(F)cc(F)cc32)C1 (mixture of isomers) [Compound 218] | 250 to 1000 |
| CC(C)C(CO)NC(=O)[C@H]1C[C@H](c2c(-c3ccc(F)cc3)[nH]c3c(F)cc(F)cc32)C1 (stereo partly shown) [Compound 29] | > 1000 |
| O=C(NCC(O)CO)[C@H]1C[C@H](c2c(-c3ccc(F)cc3)[nH]c3c(F)cc(F)cc32)C1 (stereo partly shown) [Compound 14] | 250 to 1000 |
| O=C(NC(CO)C1CC1)[C@H]1C[C@H](c2c(-c3ccc(F)cc3)[nH]c3c(F)cc(F)cc32)C1 (stereo partly shown) [Compound 199] | 250 to 1000 |
| Cc1cc(CNC(=O)[C@H]2C[C@H](c3c(-c4ccc(F)cc4)[nH]c4c(F)cc(F)cc43)C2)on1 [Compound 37] | > 1000 |
| Cc1cnc(NC(=O)[C@H]2C[C@H](c3c(-c4ccc(F)cc4)[nH]c4c(F)cc(F)cc43)C2)o1 [Compound 24] | > 1000 |
| CC[C@@H](CO)NC(=O)[C@H]1C[C@H](c2c(-c3ccc(F)cc3)[nH]c3c(F)cc(F)cc32)C1 [Compound 204] | 250 to 1000 |
| Cc1ccn(CCNC(=O)[C@H]2C[C@H](c3c(-c4ccc(F)cc4)[nH]c4c(F)cc(F)cc43)C2)n1 [Compound 35] | > 1000 |
| Cn1cncc1CNC(=O)[C@H]1C[C@H](c2c(-c3ccc(F)cc3)[nH]c3c(F)cc(F)cc32)C1 [Compound 174] | > 1000 |
| O=C1CN(C(=O)[C@H]2C[C@H](c3c(-c4ccc(F)cc4)[nH]c4c(F)cc(F)cc43)C2)CCN1 [Compound 228] | > 1000 |
| COC1CC1NC(=O)[C@H]1C[C@H](c2c(-c3ccc(F)cc3)[nH]c3c(F)cc(F)cc32)C1 (stereo partly shown) [Compound 18] | > 1000 |
| O=C(NCC(F)(F)F)[C@H]1C[C@H](c2c(-c3ccc(F)cc3)[nH]c3c(F)cc(F)cc32)C1 [Compound 33] | 250 to 1000 |
| O=C(NC1(CO)CC(F)(F)C1)[C@H]1C[C@H](c2c(-c3ccc(F)cc3)[nH]c3c(F)cc(F)cc32)C1 [Compound 202] | 250 to 1000 |
| O=C(N[C@@H]1CCC[C@@H]1O)[C@H]1C[C@H](c2c(-c3ccc(F)cc3)[nH]c3c(F)cc(F)cc32)C1 [Compound 179] | > 1000 |
| O=C(NCCn1cncn1)[C@H]1C[C@H](c2c(-c3ccc(F)cc3)[nH]c3c(F)cc(F)cc32)C1 [Compound 36] | < 250 |
| C[C@@H](CO)NC(=O)[C@H]1C[C@H](c2c(-c3ccc(F)cc3)[nH]c3c(F)cc(F)cc32)C1 [Compound 200] | < 250 |
| Cn1cc(CNC(=O)[C@H]2C[C@H](c3c(-c4ccc(F)cc4)[nH]c4c(F)cc(F)cc43)C2)cn1 [Compound 38] | > 1000 |
| COC[C@@H]1CCN1C(=O)[C@H]1C[C@H](c2c(-c3ccc(F)cc3)[nH]c3c(F)cc(F)cc32)C1 [Compound 222] | 250 to 1000 |

| Structure (SMILES) | IC50 [nM] |
| --- | --- |
| CC(C)(O)C(O)CNC(=O)[C@H]1C[C@H](c2c(-c3ccc(F)cc3)[nH]c3c(F)cc(F)cc32)C1 (stereo partly shown) [Compound 215] | > 1000 |
| NC(=O)[C@@H](CO)NC(=O)[C@H]1C[C@H](c2c(-c3ccc(F)cc3)[nH]c3c(F)cc(F)cc32)C1 [Compound 221] | < 250 |
| O=C1NCCC1CNC(=O)[C@H]1C[C@H](c2c(-c3ccc(F)cc3)[nH]c3c(F)cc(F)cc32)C1 (stereo partly shown) [Compound 208] | > 1000 |
| Cn1ncc(CNC(=O)[C@H]2C[C@H](c3c(-c4ccc(F)cc4)[nH]c4c(F)cc(F)cc43)C2)n1 [Compound 198] | 250 to 1000 |
| COC[C@@H]1CCN1C(=O)[C@H]1C[C@H](c2c(-c3ccc(F)cc3)[nH]c3c(F)cc(F)cc32)C1 [Compound 220] | > 1000 |
| C[C@@H](NC(=O)[C@H]1C[C@H](c2c(-c3ccc(F)cc3)[nH]c3c(F)cc(F)cc32)C1)C(N)=O [Compound 28] | 250 to 1000 |
| CC(CO)(CO)NC(=O)[C@H]1C[C@H](c2c(-c3ccc(F)cc3)[nH]c3c(F)cc(F)cc32)C1 [Compound 186] | < 250 |
| O=C(NC[C@@H](O)C(F)(F)F)[C@H]1C[C@H](c2c(-c3ccc(F)cc3)[nH]c3c(F)cc(F)cc32)C1 [Compound 177] | 250 to 1000 |
| O=C(N[C@H]1C[C@H](O)C1)[C@H]1C[C@H](c2c(-c3ccc(F)cc3)[nH]c3c(F)cc(F)cc32)C1 [Compound 20] | > 1000 |
| O=C(N[C@H]1COC[C@@H]1O)[C@H]1C[C@H](c2c(-c3ccc(F)cc3)[nH]c3c(F)cc(F)cc32)C1 [Compound 184] | 250 to 1000 |
| O=C(N[C@H]1CC[C@H]1O)[C@H]1C[C@H](c2c(-c3ccc(F)cc3)[nH]c3c(F)cc(F)cc32)C1 [Compound 181] | 250 to 1000 |
| O=C(NC[C@H](O)C(F)(F)F)[C@H]1C[C@H](c2c(-c3ccc(F)cc3)[nH]c3c(F)cc(F)cc32)C1 [Compound 176] | 250 to 1000 |
| CN(C(=O)[C@H]1C[C@H](c2c(-c3ccc(F)cc3)[nH]c3c(F)cc(F)cc32)C1)C1COCC1O (stereo partly shown) [Compound 205] | > 1000 |
| O=C([C@H]1C[C@H](c2c(-c3ccc(F)cc3)[nH]c3c(F)cc(F)cc32)C1)N1CC[C@@H]1CO [Compound 195] | < 250 |
| CC1CC(NC(=O)[C@H]2C[C@H](c3c(-c4ccc(F)cc4)[nH]c4c(F)cc(F)cc43)C2)C(=O)O1 (stereo partly shown) [Compound 207] | > 1000 |
| O=C1CCC(NC(=O)[C@H]2C[C@H](c3c(-c4ccc(F)cc4)[nH]c4c(F)cc(F)cc43)C2)C(=O)N1 (stereo partly shown) [Compound 26] | 250 to 1000 |
| O=C(NCc1nnco1)[C@H]1C[C@H](c2c(-c3ccc(F)cc3)[nH]c3c(F)cc(F)cc32)C1 [Compound 171] | 250 to 1000 |
| NC(=O)C1CC(c2c(-c3ccc(F)cc3)[nH]c3c(F)cc(F)cc23)C1 (stereo not shown) [Compound 278, 3-[5,7-difluoro-2-(4-fluorophenyl)-1H-indol-3-yl]cyclobutanecarboxamide] | 250 to 1000 |
| CC(O)(CO)CNC(=O)[C@H]1C[C@H](c2c(-c3ccc(F)cc3)[nH]c3c(F)cc(F)cc32)C1 (mixture of isomers) [Compound 216] | > 1000 |
